From EP1298214A2, “Plant thioesterases” (Calgene LLC, priority 1990, dated 1991)

Key:
[1] = test system: pET3a control E. coli lysate; test: Acyl-ACP hydrolysis by control E. coli lysate (unmodified pET3a); assay type: biochemical; conditions: 1 hour induction with 1mM IPTG
Experimental: (§1) To assay for C12 thioesterase activity the following mixture is incubated at 30° for 30 min: "buffer" comprising 7mM KH2PO4-KOH pH 8, 20% v/v glycerol, 1mM dithiothreitol (DTT), 0.1% v/v Triton X100; sample to be tested for activity in the same or similar buffer as the "extraction buffer" described in Example 2; and 5µl of ^14C-radiolabeled lauroyl-ACP substrate for a total volume of 100µl and final lauroyl-ACP concentration of 0.5µM. Lauroyl-ACP substrate is prepared according to the method of Rock et al (Methods in Enzymology (1981) 72:397-403), using ACP prepared from Escherichia coli by the method of Rock and Cronan (Methods in Enzymology (1981) 71:341-351). The laurate is radiolabeled in the carboxylate group at a specific radioactivity of 50-60µCi/µmol.
(§2) The reaction is stopped by adding 0.5ml cold (0°) 10% v/v acetic acid. The fatty acid product of the hydrolytic enzyme action is extracted away from the unhydrolyzed substrate by adding 1ml diethyl ether and mixing vigorously. After settling for a few minutes the upper ether layer is transferred to 5ml scintillation fluid for determination of radioactivity by liquid scintillation spectrometry. Additional ether extractions may be performed to recover remaining traces of the reaction product for more accurate quantitation of the enzyme activity if desired. The amount of ether-extracted radioactivity is a direct measure of C12-preferring acyl-ACP thioesterase activity, provided the amount of enzyme is not sufficient to hydrolyze more than about 25% of the substrate. With greater activity than this the relationship between radioactivity in the ether layer and the quantity of enzyme becomes markedly nonlinear. The enzyme preparation must then be diluted appropriately to bring the activity into the linear range of the assay.
A pET3a vector (Rosenberg, et al., Gene (1987) 56:125-135) is used in an E. coil strain BL21 (PE3) (Studier and Moffat, J. Mol. Biol. (1986) 189:113-130) host for this study. The pET3a vector contains a promoter and 33 bp of the 5' reading frame of bacteriophase T7. T7 polymerase is under the regulatory control of an isopropyl-b-D-thiogalactopyranoside (IPTG)-inducible lac UV5 promoter found in the E. coli BL21 (DE3) strain. Thus, by the addition of IPTG to E. coli BL21 (DE3) transformed with pET3a, the T7 promoter will be activated.
Constructs are prepared containing the truncated cDNA of Fig. 2 fused in reading frame by deletion of the BamHI/EcoRI fragment and replacement of the thioesterase sequence. E. coli are transformed with pET3a constructs containing the thioesterase (pET3a-THI0) and unmodified pET3a as a control. The E. coli are grown at 37°C in liquid medium and expression is induced by the addition of 1mM IPTG. […]

[2] = target: T1, Bay C12-preferring acyl-ACP thioesterase (Umbellularia californica, UniProt Q41635); test: Bay thioesterase substrate specificity as a function of chain length, ammonium sulfate fraction; assay type: biochemical; parameters: The cotyledons from such seeds are dissected from the other seed parts and stored frozen at -70°; This comprises the source tissue for enzyme extraction; from tissue; host or cells: immature seed cotyledons of Umbellularia californica; conditions: C8-ACP activity set to 1.0; label is acyl chain length of the acyl-ACP
T1 sequence (Q41635 84-382): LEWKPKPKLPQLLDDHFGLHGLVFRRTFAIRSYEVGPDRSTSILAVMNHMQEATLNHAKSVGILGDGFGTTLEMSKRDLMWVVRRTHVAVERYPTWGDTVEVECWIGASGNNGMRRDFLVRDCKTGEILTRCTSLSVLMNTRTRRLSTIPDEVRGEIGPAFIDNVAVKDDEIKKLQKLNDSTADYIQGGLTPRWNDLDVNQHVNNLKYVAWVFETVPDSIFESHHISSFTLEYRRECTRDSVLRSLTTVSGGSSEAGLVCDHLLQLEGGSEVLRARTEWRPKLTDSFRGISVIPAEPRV
Experimental: as §1, with “and 5µl of ^14C-radiolabeled lauroyl-ACP substrate for a total volume of 100µl” left out
as §2
The crude extract is subjected to ammonium sulfate fractionation as follows. Sufficient solid ammonium sulfate is gradually added with stirring over 30 min to achieve 70% saturation. The preparation is then stirred for a further 30 min. After centrifuging as described above, the pelleted material is resuspended in extraction buffer (2ml/g original tissue weight) and stirred for 10 min until dissolved. Ammonium sulfate is then added as before, but this time only sufficient to achieve 50% saturation. After centrifuging as before, the supernatant fraction is discarded. The pelleted material, which contains the C12-preferring acyl-ACP thioesterase, may be frozen by immersion in liquid nitrogen and then stored at -70° at this stage if desired. The resulting material is referred to as the "ammonium sulfate fraction." Very little of the C12-preferring acyl-ACP thioesterase activity is lost if the pellet is frozen very rapidly. […]

Substance | Hydrolysis Activity (mean cpm in ether extract) [1] [cpm] | Relative Thioesterase Activity [2]
14:0-ACP | 1271 | 4.0
decanoyl-ACP [10:0-ACP] | 787 | 2.7
lauroyl-ACP [12:0-ACP] | 1028 | 24.0
16:0-ACP | 2848 | 4.7
